Source: patent publication US7208494B2, “5HT2c receptor agonists” (Hoffmann-La Roche Inc., priority 2003, dated 2007)

Legend:
5-HT2C receptor [1] = target: T1, 5-HT2C receptor (Homo sapiens, UniProt P28335); assay: Binding to 5-HT2C receptor, [3H]-5-HT, Method (a); design: expressed in transfected cells; host or cells: CHO cell line; conditions: CHO cell line, read-out: Ki (2C)
T1 sequence (P28335 33-458): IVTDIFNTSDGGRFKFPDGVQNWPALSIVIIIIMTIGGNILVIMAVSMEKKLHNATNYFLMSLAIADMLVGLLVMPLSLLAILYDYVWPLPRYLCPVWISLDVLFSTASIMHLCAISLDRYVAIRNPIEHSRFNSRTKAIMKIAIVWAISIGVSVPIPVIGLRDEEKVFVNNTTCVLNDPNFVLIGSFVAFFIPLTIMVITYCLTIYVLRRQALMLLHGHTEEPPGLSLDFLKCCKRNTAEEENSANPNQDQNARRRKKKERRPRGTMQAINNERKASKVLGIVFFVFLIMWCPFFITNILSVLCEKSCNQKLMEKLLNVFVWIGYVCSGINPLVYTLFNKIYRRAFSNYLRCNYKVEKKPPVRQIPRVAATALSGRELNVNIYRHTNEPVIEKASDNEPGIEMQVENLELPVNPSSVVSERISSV
Procedure: (§1) The binding of compounds of formula (I) to serotonin receptors was determined in vitro by standard methods. The preparations were investigated in accordance with the assays given hereinafter.
Method (a): For the binding to the 5-HT2C receptor the 5-HT2C receptors were radiolabeled with [^3H]-5-HT. The affinity of the compounds for 5-HT2C receptors in a CHO cell line was determined according to the procedure of D. Hoyer, G. Engel and H. O. Kalkman, European J. Pharmacol., 1985, 118, 13–23.

human 5-HT2B receptors = target: T2, human 5-HT2B receptors (Homo sapiens, UniProt P41595); assay: Binding to 5-HT2B receptor, [3H]-5-HT, Method (b); conditions: human 5-HT2B in CHO cell line, read-out: Ki (2B)
T2 construct: expressed in transfected cells; host or cells: CHO cell line
T2 sequence (P41595 whole entry): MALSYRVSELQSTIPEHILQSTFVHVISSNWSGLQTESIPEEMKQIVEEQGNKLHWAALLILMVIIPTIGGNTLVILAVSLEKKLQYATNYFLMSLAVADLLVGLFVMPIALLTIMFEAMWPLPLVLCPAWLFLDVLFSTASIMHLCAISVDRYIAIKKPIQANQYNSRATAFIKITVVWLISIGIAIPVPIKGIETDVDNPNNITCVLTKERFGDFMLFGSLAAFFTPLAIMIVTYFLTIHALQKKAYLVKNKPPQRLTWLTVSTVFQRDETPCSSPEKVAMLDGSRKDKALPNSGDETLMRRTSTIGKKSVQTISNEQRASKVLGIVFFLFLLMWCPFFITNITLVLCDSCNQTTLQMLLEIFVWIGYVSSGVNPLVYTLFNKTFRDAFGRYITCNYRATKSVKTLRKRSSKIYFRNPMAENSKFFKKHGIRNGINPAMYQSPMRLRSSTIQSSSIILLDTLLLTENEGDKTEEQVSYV
Procedure: as §1
Method (b): For the binding to the 5-HT2B receptor the 5-HT2B receptors were radiolabeled with [^3H]-5-HT. The affinity of the compounds for human 5-HT2B receptors in a CHO cell line was determined according to the procedure of K. Schmuck, C. Ullmer, P. Engels and H. Lubbert, FEBS Lett., 1994, 342, 85–90.

5-HT2A receptor [2] = target: T3, 5-HT2A receptor (Homo sapiens, UniProt P28223); assay: Binding to 5-HT2A receptor, [125I]-DOI, Method (c); design: expressed in transfected cells; host or cells: CHO cell line; conditions: CHO cell line, read-out: Ki (2A)
T3 sequence (P28223 whole entry): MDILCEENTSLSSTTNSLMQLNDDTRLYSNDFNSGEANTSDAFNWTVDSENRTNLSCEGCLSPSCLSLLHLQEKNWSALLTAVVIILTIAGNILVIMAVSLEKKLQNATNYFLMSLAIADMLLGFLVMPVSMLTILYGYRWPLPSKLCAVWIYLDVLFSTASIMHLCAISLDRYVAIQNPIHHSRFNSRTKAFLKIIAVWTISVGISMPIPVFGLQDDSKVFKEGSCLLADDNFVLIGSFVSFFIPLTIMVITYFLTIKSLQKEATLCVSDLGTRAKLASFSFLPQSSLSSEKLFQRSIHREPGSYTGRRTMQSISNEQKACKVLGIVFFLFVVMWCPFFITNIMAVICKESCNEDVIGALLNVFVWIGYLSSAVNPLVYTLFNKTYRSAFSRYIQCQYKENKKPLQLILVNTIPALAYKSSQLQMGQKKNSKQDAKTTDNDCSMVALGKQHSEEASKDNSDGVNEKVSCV
Procedure: as §1
Method (c): For the binding to the 5-HT2A receptor the 5-HT2A receptors were radiolabeled with [^125I]-DOI. The affinity of the compounds for 5-HT2A receptors in a CHO cell line was determined according to the procedure of D. J. McKenna and S. J. Peroutka, J. Neurosci., 1989, 9, 3482–90.

5-HT2C receptor [3] = target: T1, 5-HT2C receptor; assay: Functional activity, FLIPR calcium assay, h5-HT2C; format: cell-based; design: expressed in transfected cells; host or cells: CHO cells; conditions: for EC50: CHO cells expressing human 5-HT2C, FLIPR; for h5-HT2C Rel. Eff.: relative to response of 10 μM 5-HT (defined as 100%)
Procedure: (§2) The functional activity of compounds of formula (I) was assayed using a Fluorimetric Imaging Plate reader (FLIPR). CHO cells expressing the human 5-HT2C or human 5-HT2A receptors were counted and plated into standard 96 well microtitre plates on the day before testing to give a confluent monolayer. The cells were then dye loaded with the calcium sensitive dye, Fluo-3-AM. Unincorporated dye was removed using an automated cell washer to leave a total volume of 100 μL/well of assay buffer (Hanks balanced salt solution containing 20 mM Hepes and 2.5 mM probenecid). The drug (dissolved in 50 μL of the assay buffer) was added at a rate of 70 μL/sec to each well of the FLIPR 96 well plate during fluorescence measurements. The measurements were taken at 1 sec intervals and the maximum fluorescent signal was measured (approx 10–15 secs after drug addition) and compared with the response produced by 10 μM 5-HT (defined as 100%) to which it was expressed as a percentage response (relative efficacy). Dose response curves were constructed using Graphpad Prism (Graph Software Inc.).

5-HT2A receptor [4] = target: T3, 5-HT2A receptor; assay: Functional activity, FLIPR calcium assay, h5-HT2A; format: cell-based; design: expressed in transfected cells; host or cells: CHO cells; conditions: for EC50: CHO cells expressing human 5-HT2A, FLIPR; for h5-HT2A Rel. Eff.: relative to response of 10 μM 5-HT (defined as 100%)
Procedure: as §2

Q: Which results are given for `Cc1c(F)cnc2c1C[C@@H]1CNC[C@@H](C)N21` [Example 80, (4R,9aR)-7-Fluoro-4,8-dimethyl-1,2,3,4,9,9a-hexahydro-2,4a,5-triaza-fluorene]?
A: Ki (5-HT2C receptor [1]): 6 nM; Ki (human 5-HT2B receptors): 87 nM; Ki (5-HT2A receptor [2]): 86 nM; EC50 (5-HT2C receptor [3]): 13 nM; h5-HT2C Rel. Eff. (5-HT2C receptor [3]): 98%; EC50 (5-HT2A receptor [4]): 178 nM; h5-HT2A Rel. Eff. (5-HT2A receptor [4]): 56%

Q: For `C[C@@H]1CNC[C@H]2Cc3cc(Cl)c(C(F)F)nc3N21` [Example 23, (4R,9aR)-7-Chloro-6-difluoromethyl-4-methyl-1,2,3,4,9,9a-hexahydro-2,4a,5-triaza-fluorene], which Ki (5-HT2C receptor [1]) is on record?
A: 8 nM

Q: And the Ki (human 5-HT2B receptors)?
A: 12 nM

Q: And the Ki (5-HT2A receptor [2])?
A: 25 nM

Q: And the EC50 (5-HT2C receptor [3])?
A: 14 nM

Q: What about the “h5-HT2C Rel. Eff.” value (5-HT2C receptor [3]) of the same molecule?
A: 97%

Q: What about the EC50 (5-HT2A receptor [4]) of the same molecule?
A: 70 nM

Q: And the “h5-HT2A Rel. Eff.” value (5-HT2A receptor [4])?
A: 56%

Q: For `CO[C@H](C)c1nc2c(cc1Cl)C[C@@H]1CNC[C@@H](C)N21` [Example 46, (4R,9aR)-7-Chloro-6-(1-(R)-methoxy-ethyl)-4-methyl-1,2,3,4,9,9a-hexahydro-2,4a,5-triaza-fluorene], which Ki (5-HT2C receptor [1]) is on record?
A: 9 nM

Q: And the Ki (human 5-HT2B receptors)?
A: 84 nM

Q: What about the Ki (5-HT2A receptor [2]) of the same molecule?
A: 195 nM

Q: And the EC50 (5-HT2C receptor [3])?
A: 13 nM

Q: What about the “h5-HT2C Rel. Eff.” value (5-HT2C receptor [3]) of the same molecule?
A: 100%

Q: And the EC50 (5-HT2A receptor [4])?
A: 273 nM

Q: And the “h5-HT2A Rel. Eff.” value (5-HT2A receptor [4])?
A: 50%
